Columns and labels:
[1] = molecular target: Hepatocyte growth factor receptor (Homo sapiens, UniProt P08581); test: Inhibition of recombinant MET kinase domain (unknown origin)
[2] = molecular target: Vascular endothelial growth factor receptor 2 (Homo sapiens, UniProt P35968); test: Inhibition of recombinant VEGFR2 kinase domain (unknown origin)
[3] = molecular target: Proto-oncogene tyrosine-protein kinase receptor Ret (Homo sapiens, UniProt P07949); test: Inhibition of RET (unknown origin)
[4] = Growth inhibition of human MKN45 cells; details: MKN-45
[5] = molecular target: Mast/stem cell growth factor receptor Kit (Homo sapiens, UniProt P10721); test: Inhibition of c-Kit (unknown origin)
Mast/stem cell growth factor receptor Kit, sequence (P10721 whole entry): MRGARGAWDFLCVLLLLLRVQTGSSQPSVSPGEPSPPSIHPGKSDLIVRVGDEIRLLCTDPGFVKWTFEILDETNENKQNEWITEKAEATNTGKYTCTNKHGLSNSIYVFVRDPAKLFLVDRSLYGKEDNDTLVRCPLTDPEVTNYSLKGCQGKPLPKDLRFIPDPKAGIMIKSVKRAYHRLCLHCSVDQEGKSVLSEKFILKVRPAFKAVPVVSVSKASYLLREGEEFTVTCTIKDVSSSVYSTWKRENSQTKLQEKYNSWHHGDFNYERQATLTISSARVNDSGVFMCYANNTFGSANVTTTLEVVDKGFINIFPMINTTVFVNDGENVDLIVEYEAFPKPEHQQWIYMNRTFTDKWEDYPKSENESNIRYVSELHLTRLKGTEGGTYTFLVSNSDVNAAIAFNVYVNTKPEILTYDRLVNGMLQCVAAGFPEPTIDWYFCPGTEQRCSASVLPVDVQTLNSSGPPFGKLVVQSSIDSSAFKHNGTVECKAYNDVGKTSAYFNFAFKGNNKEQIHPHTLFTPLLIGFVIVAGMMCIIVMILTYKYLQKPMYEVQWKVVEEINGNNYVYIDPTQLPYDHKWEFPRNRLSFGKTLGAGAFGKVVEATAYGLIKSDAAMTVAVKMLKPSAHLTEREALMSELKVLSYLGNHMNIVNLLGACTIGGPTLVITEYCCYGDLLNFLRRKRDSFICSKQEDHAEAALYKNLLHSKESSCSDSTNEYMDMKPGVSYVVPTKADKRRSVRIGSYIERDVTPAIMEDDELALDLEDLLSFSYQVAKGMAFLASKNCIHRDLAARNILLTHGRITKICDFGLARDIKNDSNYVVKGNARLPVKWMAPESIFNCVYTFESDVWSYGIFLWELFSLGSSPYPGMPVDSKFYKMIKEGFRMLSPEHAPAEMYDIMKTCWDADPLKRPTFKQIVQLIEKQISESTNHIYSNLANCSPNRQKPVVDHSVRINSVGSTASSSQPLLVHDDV

HUVEC = test: Growth inhibition of HUVEC cells; details: Homo sapiens

Hepatocyte growth factor receptor, sequence (P08581 whole entry, the tested form may be a part): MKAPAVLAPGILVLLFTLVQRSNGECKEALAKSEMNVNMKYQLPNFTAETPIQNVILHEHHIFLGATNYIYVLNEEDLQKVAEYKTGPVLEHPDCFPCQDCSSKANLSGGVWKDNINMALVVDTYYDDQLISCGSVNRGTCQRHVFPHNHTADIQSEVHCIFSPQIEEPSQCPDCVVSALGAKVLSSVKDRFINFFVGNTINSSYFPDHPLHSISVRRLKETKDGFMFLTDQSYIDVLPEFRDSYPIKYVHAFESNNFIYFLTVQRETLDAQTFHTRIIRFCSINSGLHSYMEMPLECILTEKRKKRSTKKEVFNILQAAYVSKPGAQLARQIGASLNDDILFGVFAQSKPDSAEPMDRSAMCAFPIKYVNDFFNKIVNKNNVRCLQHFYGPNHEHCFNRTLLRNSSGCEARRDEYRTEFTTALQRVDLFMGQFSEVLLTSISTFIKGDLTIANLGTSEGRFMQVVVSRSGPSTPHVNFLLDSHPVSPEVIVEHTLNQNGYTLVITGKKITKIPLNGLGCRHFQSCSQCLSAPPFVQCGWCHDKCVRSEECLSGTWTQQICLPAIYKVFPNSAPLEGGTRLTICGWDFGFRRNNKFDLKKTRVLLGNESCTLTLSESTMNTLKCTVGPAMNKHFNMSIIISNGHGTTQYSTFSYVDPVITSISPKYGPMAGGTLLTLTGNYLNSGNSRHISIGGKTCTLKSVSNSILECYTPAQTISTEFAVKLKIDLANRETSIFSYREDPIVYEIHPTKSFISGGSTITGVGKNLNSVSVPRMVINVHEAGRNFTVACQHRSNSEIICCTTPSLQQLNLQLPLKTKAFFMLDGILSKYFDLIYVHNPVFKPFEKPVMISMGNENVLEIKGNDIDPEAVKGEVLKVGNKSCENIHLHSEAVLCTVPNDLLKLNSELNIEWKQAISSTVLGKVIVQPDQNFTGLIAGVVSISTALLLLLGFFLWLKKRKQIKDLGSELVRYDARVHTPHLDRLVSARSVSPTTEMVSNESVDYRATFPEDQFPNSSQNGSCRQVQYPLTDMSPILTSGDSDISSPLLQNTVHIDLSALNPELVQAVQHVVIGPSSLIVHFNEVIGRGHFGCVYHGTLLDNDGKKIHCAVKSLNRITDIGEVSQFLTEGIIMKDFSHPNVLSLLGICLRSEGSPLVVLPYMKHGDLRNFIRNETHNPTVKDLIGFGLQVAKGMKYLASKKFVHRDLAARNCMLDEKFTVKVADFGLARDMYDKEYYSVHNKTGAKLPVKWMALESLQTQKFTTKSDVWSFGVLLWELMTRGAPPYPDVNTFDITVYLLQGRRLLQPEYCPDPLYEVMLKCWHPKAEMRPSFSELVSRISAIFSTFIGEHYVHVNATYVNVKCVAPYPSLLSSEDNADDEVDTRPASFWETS
Vascular endothelial growth factor receptor 2, sequence (P35968 whole entry, the tested form may be a part): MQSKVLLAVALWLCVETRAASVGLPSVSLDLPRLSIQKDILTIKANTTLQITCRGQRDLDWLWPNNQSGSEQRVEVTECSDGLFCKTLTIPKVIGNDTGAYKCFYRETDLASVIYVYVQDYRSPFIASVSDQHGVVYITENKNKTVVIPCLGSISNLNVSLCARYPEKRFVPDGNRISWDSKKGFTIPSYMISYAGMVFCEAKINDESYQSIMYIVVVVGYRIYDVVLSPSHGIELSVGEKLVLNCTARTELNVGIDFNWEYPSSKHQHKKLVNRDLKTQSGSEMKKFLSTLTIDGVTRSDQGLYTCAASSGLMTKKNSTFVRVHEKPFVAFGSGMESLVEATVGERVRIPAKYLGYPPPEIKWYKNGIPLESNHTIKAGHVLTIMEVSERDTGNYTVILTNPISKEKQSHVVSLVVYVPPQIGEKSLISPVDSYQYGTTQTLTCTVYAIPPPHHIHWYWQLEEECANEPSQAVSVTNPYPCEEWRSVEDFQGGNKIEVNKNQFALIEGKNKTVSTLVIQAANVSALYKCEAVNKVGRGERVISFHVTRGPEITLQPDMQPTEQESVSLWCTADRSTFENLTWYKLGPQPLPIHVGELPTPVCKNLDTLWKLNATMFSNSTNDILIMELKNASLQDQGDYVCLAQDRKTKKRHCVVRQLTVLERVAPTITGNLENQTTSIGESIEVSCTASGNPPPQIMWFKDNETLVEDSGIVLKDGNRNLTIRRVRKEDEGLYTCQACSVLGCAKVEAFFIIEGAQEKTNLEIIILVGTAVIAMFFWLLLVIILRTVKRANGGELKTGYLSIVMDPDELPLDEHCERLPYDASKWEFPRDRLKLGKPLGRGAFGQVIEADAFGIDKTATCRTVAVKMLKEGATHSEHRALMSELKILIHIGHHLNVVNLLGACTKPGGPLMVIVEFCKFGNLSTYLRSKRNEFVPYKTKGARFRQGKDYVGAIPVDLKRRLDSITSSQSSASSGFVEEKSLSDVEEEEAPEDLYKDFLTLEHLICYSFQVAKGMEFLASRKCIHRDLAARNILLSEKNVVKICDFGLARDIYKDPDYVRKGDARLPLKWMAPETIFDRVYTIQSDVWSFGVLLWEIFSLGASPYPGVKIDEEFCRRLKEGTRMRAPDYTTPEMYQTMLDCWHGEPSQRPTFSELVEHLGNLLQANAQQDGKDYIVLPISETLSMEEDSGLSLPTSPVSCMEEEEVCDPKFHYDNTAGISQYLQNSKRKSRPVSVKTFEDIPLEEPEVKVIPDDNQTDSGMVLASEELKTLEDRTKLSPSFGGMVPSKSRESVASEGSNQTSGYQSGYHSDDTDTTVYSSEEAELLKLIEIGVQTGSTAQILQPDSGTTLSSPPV
Proto-oncogene tyrosine-protein kinase receptor Ret, sequence (P07949 whole entry): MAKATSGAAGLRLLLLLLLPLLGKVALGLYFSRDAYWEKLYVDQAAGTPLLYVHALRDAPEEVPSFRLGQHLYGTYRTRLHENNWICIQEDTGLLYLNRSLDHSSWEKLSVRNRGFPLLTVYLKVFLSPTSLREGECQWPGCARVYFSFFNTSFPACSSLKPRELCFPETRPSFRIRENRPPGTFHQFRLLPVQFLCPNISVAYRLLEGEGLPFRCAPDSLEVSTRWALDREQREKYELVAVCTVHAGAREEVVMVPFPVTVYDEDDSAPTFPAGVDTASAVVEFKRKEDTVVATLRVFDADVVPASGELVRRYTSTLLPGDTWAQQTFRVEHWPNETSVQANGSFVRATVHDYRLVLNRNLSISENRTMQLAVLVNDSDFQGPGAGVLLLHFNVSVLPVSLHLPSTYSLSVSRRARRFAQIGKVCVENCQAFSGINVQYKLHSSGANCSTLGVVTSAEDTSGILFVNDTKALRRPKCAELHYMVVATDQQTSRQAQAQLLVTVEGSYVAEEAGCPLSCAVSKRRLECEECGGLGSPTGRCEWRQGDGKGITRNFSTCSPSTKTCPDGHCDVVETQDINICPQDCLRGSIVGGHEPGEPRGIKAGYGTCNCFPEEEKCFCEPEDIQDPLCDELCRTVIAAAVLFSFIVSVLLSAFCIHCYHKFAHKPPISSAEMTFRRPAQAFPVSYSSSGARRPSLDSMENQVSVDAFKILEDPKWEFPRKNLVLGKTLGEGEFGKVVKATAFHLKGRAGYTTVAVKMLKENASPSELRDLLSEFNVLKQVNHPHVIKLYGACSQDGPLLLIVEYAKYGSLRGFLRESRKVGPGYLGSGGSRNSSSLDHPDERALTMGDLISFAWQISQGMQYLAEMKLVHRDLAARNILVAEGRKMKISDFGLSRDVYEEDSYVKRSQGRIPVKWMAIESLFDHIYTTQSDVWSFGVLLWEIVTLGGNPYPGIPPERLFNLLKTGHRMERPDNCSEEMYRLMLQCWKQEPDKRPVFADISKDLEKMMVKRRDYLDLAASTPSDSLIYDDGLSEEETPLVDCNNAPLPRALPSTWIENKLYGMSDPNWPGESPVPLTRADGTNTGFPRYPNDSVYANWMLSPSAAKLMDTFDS

Compound | IC50 [1] [µM] | IC50 [2] [µM] | other results
Nc1nccc(Oc2ccc(-n3cccc(C(=O)Nc4ccc(F)cc4)c3=O)cc2F)c1Cl | > 25 |  | 
Nc1nccc(Oc2ccc(-n3cccc(C(=O)NCc4ccc(F)cc4)c3=O)cc2F)c1Cl | > 25 |  | 
Nc1nccc(Oc2ccc(-n3ccc(C(=O)Nc4ccc(F)cc4)cc3=O)cc2F)c1Cl | > 25 |  | 
Nc1nccc(Oc2ccc(-n3ccc(C(=O)NCc4ccc(F)cc4)cc3=O)cc2F)c1Cl | > 25 |  | 
Nc1nccc(Oc2ccc(-n3cc(C(=O)Nc4ccc(F)cc4)ccc3=O)cc2F)c1Cl | > 25 |  | 
Nc1nccc(Oc2ccc(-n3cc(C(=O)NCc4ccc(F)cc4)ccc3=O)cc2F)c1Cl |  | > 25 | 
COc1cc(=O)n(-c2ccc(Oc3ccnc(N)c3Cl)c(F)c2)cc1C(=O)NCc1ccc(F)cc1 |  | > 25 | IC50 [3]: > 25 µM; IC50 [4]: > 25 µM; IC50 [5]: > 25 µM; IC50 (HUVEC): 2.41 µM
COc1cc(=O)n(-c2ccc(Oc3ccnc(N)c3I)c(F)c2)cc1C(=O)NCc1ccc(F)cc1 |  | > 25 | IC50 [3]: > 25 µM; IC50 [4]: > 25 µM; IC50 [5]: > 25 µM; IC50 (HUVEC): 2.41 µM

Reference: ChEMBL document CHEMBL3351718 (Bioorg Med Chem Lett, 2014)
